In ChEMBL document CHEMBL1201862, “PubChem BioAssay data set” (2004):
One block for each molecule: values may come before it. The source made the active and inactive calls.

Columns and labels:
[1] = molecular target: T1, Corticotropin-releasing factor receptor 2/Corticotropin-releasing factor-binding protein (Homo sapiens, UniProt P24387+Q13324); experiment: activators of CRF receptor 2 with binding protein – uHTS hits, confirmation (AID 602473); type: functional; settings: read-out: EC50_Mean
T1 sequence (Q13324 whole entry): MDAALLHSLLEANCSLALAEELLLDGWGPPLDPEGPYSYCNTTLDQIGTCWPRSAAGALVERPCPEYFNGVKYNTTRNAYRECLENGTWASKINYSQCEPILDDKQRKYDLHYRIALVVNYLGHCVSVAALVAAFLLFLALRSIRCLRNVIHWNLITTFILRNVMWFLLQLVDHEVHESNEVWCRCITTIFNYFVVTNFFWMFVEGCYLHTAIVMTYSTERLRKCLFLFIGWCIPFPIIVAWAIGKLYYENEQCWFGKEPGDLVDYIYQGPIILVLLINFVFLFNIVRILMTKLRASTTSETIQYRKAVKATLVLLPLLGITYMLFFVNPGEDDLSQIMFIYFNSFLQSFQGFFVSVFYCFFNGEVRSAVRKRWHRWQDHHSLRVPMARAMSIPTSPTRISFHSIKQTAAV
T1 sequence (P24387 whole entry): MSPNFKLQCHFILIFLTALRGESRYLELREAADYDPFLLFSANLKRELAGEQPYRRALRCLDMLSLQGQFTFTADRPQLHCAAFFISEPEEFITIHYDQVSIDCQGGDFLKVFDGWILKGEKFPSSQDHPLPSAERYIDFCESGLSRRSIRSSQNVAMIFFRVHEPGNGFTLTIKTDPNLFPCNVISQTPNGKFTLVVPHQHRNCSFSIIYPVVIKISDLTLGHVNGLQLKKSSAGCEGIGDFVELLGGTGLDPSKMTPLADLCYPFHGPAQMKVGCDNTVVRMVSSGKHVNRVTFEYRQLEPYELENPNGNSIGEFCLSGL

[2] = DRD fibroblast viability loss – cell-based, non-viral oncogenic, luminescence, dose response (AID 1934); type: functional; settings: Homo sapiens
[3] = tested on: BJ; experiment: BJ-TERT-LT-ST fibroblast viability loss – cell-based, RAS-independent, luminescence, dose response (AID 1935); type: functional, Homo sapiens; settings: Homo sapiens, BJ;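 also: BJ fibroblasts immortalized with TERT plus LT and ST oncogenes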
[4] = molecular target: T1, Corticotropin-releasing factor receptor 2/Corticotropin-releasing factor-binding protein; experiment: Dose Response confirmation of uHTS hits for small molecule antagonists of the CRF-binding protein and CRF-R2 receptor complex.; type: functional; settings: read-out: IC50_Mean
[5] = blockers of CRF-binding protein–CRF-R2 complex – cell-based, uHTS hits, 384-well, dose response (AID 651639); type: functional, Homo sapiens; settings: read-out: IC50_Mean
[6] = tested on: BJ; experiment: BJ-TERT fibroblast viability loss – cell-based, RAS-independent, luminescence, dose response (AID 1933); type: functional, Homo sapiens; settings: Homo sapiens, BJ
[7] = tested on: BJ; experiment: cells; type: functional, cell-based, Homo sapiens; settings: Homo sapiens, BJ
[8] = molecular target: T2, Sentrin-specific protease 6 (Homo sapiens, UniProt Q9GZR1); type: functional;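 also: Luminescence-based dose-response confirmatory assay of SENP6 inhibition, following up an ultra-high-throughput screen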
T2 sequence (Q9GZR1 whole entry): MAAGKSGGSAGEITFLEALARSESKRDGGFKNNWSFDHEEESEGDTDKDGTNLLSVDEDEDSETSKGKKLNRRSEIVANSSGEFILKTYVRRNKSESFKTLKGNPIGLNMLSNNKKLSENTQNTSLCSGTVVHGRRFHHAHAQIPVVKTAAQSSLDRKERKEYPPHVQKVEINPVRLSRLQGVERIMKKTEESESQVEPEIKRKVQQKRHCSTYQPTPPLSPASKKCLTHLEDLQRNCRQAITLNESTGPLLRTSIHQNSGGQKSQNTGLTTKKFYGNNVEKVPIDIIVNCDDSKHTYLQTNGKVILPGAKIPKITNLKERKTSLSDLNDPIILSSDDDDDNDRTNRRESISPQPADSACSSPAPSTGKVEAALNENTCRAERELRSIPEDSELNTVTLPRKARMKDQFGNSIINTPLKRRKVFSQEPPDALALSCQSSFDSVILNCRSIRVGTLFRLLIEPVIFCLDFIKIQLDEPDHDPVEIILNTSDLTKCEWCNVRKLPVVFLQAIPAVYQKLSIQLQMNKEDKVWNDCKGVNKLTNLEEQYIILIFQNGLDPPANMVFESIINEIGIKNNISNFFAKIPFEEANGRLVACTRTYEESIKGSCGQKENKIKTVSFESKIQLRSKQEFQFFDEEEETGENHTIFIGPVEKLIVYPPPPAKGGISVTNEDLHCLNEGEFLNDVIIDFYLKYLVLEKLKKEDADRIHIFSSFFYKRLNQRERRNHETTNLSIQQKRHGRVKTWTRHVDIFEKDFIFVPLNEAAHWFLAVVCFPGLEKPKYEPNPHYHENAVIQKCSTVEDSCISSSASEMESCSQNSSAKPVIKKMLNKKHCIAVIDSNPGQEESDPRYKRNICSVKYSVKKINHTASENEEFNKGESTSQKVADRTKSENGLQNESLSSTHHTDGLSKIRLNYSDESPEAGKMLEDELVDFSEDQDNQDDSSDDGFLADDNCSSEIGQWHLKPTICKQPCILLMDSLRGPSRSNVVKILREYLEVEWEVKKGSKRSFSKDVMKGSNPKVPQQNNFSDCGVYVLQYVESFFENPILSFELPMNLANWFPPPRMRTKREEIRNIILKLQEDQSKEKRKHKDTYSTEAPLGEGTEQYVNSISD

[9] = molecular target: T3, Sentrin-specific protease 7 (Homo sapiens, UniProt Q9BQF6); type: functional;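 also: Luminescence-based dose-response confirmation of ultra-high-throughput screening hits, measuring inhibition of SENP7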
T3 sequence (Q9BQF6 whole entry): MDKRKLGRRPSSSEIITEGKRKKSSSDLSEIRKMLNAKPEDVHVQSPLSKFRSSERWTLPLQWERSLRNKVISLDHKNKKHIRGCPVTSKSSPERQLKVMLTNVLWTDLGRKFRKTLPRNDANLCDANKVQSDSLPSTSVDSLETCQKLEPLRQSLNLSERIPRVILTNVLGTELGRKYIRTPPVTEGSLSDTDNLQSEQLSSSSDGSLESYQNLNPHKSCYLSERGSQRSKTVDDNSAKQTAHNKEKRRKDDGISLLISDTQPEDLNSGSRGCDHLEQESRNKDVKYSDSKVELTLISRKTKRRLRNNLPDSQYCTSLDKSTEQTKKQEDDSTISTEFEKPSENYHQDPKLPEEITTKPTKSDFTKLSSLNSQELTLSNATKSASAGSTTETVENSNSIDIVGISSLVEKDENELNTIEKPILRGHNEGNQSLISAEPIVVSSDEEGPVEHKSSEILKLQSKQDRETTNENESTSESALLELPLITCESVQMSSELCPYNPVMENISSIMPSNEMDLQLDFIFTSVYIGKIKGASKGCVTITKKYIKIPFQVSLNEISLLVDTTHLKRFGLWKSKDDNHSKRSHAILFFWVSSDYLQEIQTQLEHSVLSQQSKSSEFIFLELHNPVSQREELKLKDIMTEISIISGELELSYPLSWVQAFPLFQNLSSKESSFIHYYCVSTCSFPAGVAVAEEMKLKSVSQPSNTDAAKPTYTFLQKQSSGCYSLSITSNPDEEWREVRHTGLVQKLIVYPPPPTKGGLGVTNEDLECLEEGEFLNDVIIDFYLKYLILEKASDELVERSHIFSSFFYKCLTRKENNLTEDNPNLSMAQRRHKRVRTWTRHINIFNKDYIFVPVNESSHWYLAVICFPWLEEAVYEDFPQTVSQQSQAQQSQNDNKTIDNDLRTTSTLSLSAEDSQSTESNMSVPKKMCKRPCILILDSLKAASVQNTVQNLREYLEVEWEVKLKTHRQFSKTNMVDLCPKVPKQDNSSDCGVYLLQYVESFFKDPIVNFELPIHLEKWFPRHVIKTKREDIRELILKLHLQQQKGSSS

[10] = molecular target: T4, Sentrin-specific protease 8 (Homo sapiens, UniProt Q96LD8); type: functional;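 also: luminescence read-out of SENP8 inhibition, dose-response confirmation following an ultra-high-throughput screen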
T4 sequence (Q96LD8 whole entry): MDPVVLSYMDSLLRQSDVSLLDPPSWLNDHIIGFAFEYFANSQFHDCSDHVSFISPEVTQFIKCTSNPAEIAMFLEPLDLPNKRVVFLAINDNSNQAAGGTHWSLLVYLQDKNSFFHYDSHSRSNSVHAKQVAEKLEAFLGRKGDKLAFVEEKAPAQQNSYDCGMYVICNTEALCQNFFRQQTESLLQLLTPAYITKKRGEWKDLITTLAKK

[11] = molecular target: T5, Caspase-3 (Homo sapiens, UniProt P42574); type: functional;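 also: Dose-response selectivity test against caspase-3 for candidate inhibitors of sentrin-specific proteases (SENPs)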
T5 sequence (P42574 whole entry): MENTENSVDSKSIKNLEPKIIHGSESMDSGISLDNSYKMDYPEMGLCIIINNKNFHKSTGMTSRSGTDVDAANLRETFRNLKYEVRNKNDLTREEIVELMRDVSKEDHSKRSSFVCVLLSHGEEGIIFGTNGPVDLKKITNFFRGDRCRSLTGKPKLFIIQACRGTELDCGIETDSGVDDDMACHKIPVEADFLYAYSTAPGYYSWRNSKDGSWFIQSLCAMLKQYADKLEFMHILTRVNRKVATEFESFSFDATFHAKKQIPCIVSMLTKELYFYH

[12] = molecular target: T6, Low molecular weight phosphotyrosine protein phosphatase (Homo sapiens, UniProt P24666); type: functional; settings: read-out: IC50_Mean;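 also: Dose-response confirmation assay measuring inhibition of LMPTP enzyme activity by fluorescence intensity read-out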
T6 sequence (P24666 whole entry): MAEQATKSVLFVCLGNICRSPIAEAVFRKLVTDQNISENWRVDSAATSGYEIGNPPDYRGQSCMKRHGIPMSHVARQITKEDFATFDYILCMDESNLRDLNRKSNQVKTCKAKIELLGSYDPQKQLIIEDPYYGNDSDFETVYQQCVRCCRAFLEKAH

[13] = molecular target: Protein Wnt-3a (Mus musculus, UniProt P27467); experiment: antagonism of Wnt3a pathway luciferase reporter – Wnt-LIGHT cells, luminescence, selectivity assay for Gli-SUFU antagonist project, dose response (AID 651570); type: functional; settings: read-out: IC50_Mean;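 also: Wnt-LIGHT reporter cells stimulated with conditioned medium from Wnt3a-producing cells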
Sequence of Protein Wnt-3a (P27467 whole entry): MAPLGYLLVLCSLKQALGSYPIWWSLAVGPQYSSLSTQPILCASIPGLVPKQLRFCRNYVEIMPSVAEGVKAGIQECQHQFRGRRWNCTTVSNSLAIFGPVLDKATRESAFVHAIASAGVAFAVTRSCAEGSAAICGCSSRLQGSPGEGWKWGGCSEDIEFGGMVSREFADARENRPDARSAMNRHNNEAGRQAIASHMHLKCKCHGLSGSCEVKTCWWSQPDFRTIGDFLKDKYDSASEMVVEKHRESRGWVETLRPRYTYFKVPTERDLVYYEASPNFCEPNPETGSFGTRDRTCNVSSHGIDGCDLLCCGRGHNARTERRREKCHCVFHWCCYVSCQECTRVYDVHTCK

[14] = NIH3T3 cell viability loss – ATP luminescence, mouse fibroblasts, counter-screen, dose response (AID 2010); type: functional, cell-based;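 also: cells exposed to compound for about 90 hours before reading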
[15] = Trypanosoma cruzi growth suppression in host cells – NIH3T3 host cells, beta-gal luminescence, confirmation (AID 2044); type: functional, cell-based;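 also: intracellular parasites grown in NIH/3T3 mouse fibroblasts as host cells; luminescent beta-galactosidase reporter signal from transgenic T. cruzi replicating inside host cells; inhibitors lower the luminescence signal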
[16] = HGIII-sPLA2 enzyme inhibition potency – biochemical, QFRET, IC50, dose response (AID 743457);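 also: green fluorescence rise as the enzyme cleaves BODIPY PC-A2 in liposomes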
[17] = molecular target: T7, Polyadenylate-binding protein 1 (Homo sapiens, UniProt P11940); experiment: MLLE domain peptide-binding blockers, IC50 – biochemical, fluorescence polarization, FITC-PAM2 peptide, dose response (AID 602259); type: functional; settings: read-out: IC50_Mean
T7 sequence (P11940 whole entry, the tested form may be a part): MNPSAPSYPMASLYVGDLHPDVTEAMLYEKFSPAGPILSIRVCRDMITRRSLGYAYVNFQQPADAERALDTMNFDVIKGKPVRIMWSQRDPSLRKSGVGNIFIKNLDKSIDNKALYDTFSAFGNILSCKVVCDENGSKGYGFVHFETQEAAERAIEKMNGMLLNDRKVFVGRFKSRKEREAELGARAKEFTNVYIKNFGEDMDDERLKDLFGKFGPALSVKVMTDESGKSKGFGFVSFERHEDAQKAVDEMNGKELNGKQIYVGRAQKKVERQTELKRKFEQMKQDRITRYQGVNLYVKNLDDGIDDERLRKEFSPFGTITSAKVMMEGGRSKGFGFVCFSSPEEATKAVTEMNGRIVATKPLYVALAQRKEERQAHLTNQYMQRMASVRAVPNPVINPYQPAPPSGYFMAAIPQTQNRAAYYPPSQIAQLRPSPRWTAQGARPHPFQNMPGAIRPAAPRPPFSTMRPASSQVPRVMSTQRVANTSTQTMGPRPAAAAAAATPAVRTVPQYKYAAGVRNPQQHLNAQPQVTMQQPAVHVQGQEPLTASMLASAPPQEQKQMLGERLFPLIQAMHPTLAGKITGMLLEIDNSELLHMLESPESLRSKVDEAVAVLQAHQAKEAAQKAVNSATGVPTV

[18] = molecular target: T7, Polyadenylate-binding protein 1; experiment: MLLE binding blockers, Cy5 peptide tracer – biochemical, fluorescence polarization, Cy5-PAM2 peptide, secondary, miRNA deadenylation inhibitor project, dose response (AID 602260); type: functional; settings: read-out: IC50_Mean
[19] = OVCAR8 cell viability loss – plate reader, dry powder samples, PAX8 project, dose response (AID 743197); type: functional, cell-based; settings: OVCAR-8
[20] = molecular target: Paired box protein Pax-8 (Homo sapiens, UniProt Q06710); experiment: PAX8 transcriptional activity inhibition in RMG-I – RMG-I cells, luciferase, cherry-pick, dose response (AID 687027); type: functional, cell-based;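 also: luciferase reporter driven by Pax8 target thyroperoxidase promoter measured by SteadyGlo luminescence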
Sequence of Paired box protein Pax-8 (Q06710 whole entry): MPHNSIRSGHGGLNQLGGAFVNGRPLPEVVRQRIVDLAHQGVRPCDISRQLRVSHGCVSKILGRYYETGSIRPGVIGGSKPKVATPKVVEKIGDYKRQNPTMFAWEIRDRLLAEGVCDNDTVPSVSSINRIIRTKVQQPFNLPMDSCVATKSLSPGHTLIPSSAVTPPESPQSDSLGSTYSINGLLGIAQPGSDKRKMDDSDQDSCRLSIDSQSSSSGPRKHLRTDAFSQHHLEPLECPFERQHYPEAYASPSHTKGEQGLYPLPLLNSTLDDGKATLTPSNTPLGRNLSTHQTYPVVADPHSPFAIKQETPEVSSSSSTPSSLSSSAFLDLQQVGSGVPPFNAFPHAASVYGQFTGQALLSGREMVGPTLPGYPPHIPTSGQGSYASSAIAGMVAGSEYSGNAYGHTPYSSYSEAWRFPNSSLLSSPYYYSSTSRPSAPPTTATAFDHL

[21] = OVCAR-3 cell viability loss – plate reader, dry powder samples, PAX8 inhibitor project, dose response (AID 743044); type: functional, cell-based
[22] = IGROV1 cell killing – plate reader, dry powder samples, PAX8 inhibitor project, dose response (AID 743043); type: functional, cell-based; settings: IGROV-1

SMILES: Oc1cc(C(F)(F)F)nc2ccc(OC(F)(F)F)cc12
- EC50 [1]: 5.39 µM (active)
- EC50 [2]: 38.4 µM (active)
- EC50 [3]: > 150 µM (not active)
- IC50 [4]: 4.24 µM (active)
- IC50 [5]: > 20 µM (inactive)
- EC50 [6]: 38.8 µM (active)
- EC50 [7]: 41.4 µM (active)

- EC50 [1]: > 53 µM (inactive)
- IC50 [4]: < 0.368 µM (active)
- IC50 [5]: > 20 µM (inactive)
SMILES: COc1ccc(NC(=O)NC(C)c2ccc3c(c2)OCO3)c(OC)c1 (centres undefined)

- IC50 [8]: 19.7 µM (active)
- IC50 [9]: 6.48 µM (active)
- IC50 [11]: 19.8 µM (active)
SMILES: CCOC(=O)/C=C(\C)N1N=C(c2ccccc2)CC1c1ccccc1 (centres undefined)
- IC50 [10]: 36.1 µM (active)

- IC50 [8]: 19 µM (active)
- IC50 [9]: 13.9 µM (active)
- IC50 [11]: 16.2 µM (active)
SMILES: O=C1/C(=C/N(C(=O)c2ccco2)c2ccc(Br)cc2)Sc2ccccc21
- IC50 [10]: 24.7 µM (active)

- IC50 [12]: 41.8 µM (inactive)
SMILES: N=c1c(C(=O)NCc2ccco2)cc2c(=O)n3ccccc3nc2n1Cc1ccc(Cl)cc1

- IC50 [13]: 7.13 µM (active)
SMILES: c1ccc(C[n+]2c(-c3ccccc3)cn3c2SCCC3)cc1

SMILES: CCOc1ccccc1/N=C1\SC(CC(=O)Nc2ccc(OC)cc2OC)C(=O)N1CCC1=CCCCC1 (centres undefined)
- EC50 [1]: > 53 µM (inactive)
- EC50 [14]: > 60 µM (not active)
- EC50 [15]: 1.98 µM (active)
- IC50 [4]: < 0.368 µM (active)
- IC50 [5]: > 20 µM (inactive)

- IC50 [16]: > 122 µM (inactive)
- IC50 [17]: > 66 µM (inactive)
- IC50 [18]: > 66 µM (inactive)
SMILES: C/C(=N\NC(=S)NCCc1ccccc1)c1ccc(O)cc1O

SMILES: C[C@@H]1CN([C@@H](C)CO)C(=O)Cc2cc(NC(=O)Nc3ccc(C(F)(F)F)cc3)ccc2O[C@H]1CN(C)Cc1ccc2c(c1)OCO2
- AC50 [19]: 41.5 µM (active)
- AC50 [20]: 7.85 µM (active)
- AC50 [21]: 24 µM (active)
- AC50 [22]: 63.7 µM (active)

- IC50 [16]: > 122 µM (inactive)
SMILES: O=C1C(=O)N(Cc2ccc(-c3ccc(Cl)nc3)cc2)c2ccc(OC(F)(F)F)cc21

- IC50 [16]: > 40.6 µM (inactive)
SMILES: COc1ccc(-n2c(SCC(=O)NN=C(S)Nc3ccccc3)nc3ccccc3c2=O)cc1
